{
  "source": "patent US12076464B2",
  "about": "“Drug eluting shape memory foam” (The Texas A&M University System, priority 2019, dated 2024)",
  "assay_type_in_all_cases": "physicochemical",
  "key": {"[1]": {"assay": "Solubility in DMSO and water"}, "[2]": {"assay": "In vitro release of acriflavine from SMP foams into PBS at 37° C., fluorescence of supernatants", "description": "An embodiment includes a method for creating a drug-eluting SMP foam. The method includes incubating the foam in a 0.017 mg/mL acriflavine solution (e.g., 1 mg/mL in acriflavine solution dimethyl sulfoxide (DMSO)) that is mixed with varying PVA solutions of 0%, 1%, 2%, 3%, 10% (wt./vol) overnight on a rotator at room temperature (n=3). Different PVA concentrations may be used to increase drug viscosity and drug uptake onto or into the foam. In other embodiments PVA is held constant and acriflavine concentrations are varied (which changes the PVA viscosity). Foams may then be removed from the respective drug/PVA solutions and dried in a vacuum chamber for 5 days. The foams may then be incubated in 0.4 mL phosphate-buffered saline (PBS) at 37° C. Supernatants may be removed at various time points and measured for fluorescence at 416/514 nm (Ex/Em). Regarding in vitro release of acriflavine from HDI-based SMP foams, see FIG. 1. […] This may be because of the increased loading of acriflavine that is due to PVA (and PVA's affinity for the foam). […] In vitro release of acriflavine from non-reticulated TMHDI 60 foam is addressed in FIG. 3."}, "[3]": {"assay": "Drug uptake (loading) onto or into SMP foam from drug/PVA solutions", "description": "An embodiment includes a method for creating a drug-eluting SMP foam. The method includes incubating the foam in a 0.017 mg/mL acriflavine solution (e.g., 1 mg/mL in acriflavine solution dimethyl sulfoxide (DMSO)) that is mixed with varying PVA solutions of 0%, 1%, 2%, 3%, 10% (wt./vol) overnight on a rotator at room temperature (n=3). Different PVA concentrations may be used to increase drug viscosity and drug uptake onto or into the foam. In other embodiments PVA is held constant and acriflavine concentrations are varied (which changes the PVA viscosity). Foams may then be removed from the respective drug/PVA solutions and dried in a vacuum chamber for 5 days. The foams may then be incubated in 0.4 mL phosphate-buffered saline (PBS) at 37° C. Supernatants may be removed at various time points and measured for fluorescence at 416/514 nm (Ex/Em). In an embodiment acriflavine is used as a cargo in the free drug form (which helps illustrate the release profile for drug solutions with different PVA concentrations). […] This may be due, at least in part, to the increased viscosity of the drug when combined with PVA, which enables the drug to be trapped within or on the pores present in the foam. […]"}},
  "data": [
    {"compound": "COc1cccc2c1C(=O)c1c(O)c3c(c(O)c1C2=O)C[C@@](O)(C(=O)CO)C[C@@H]3O[C@H]1C[C@H](N)[C@H](O)[C@H](C)O1", "note": "[Doxorubicin]", "values": [
      {"measurement": "solubility", "setting": "[1]", "result": "soluble in both DMSO and water"}
    ]},
    {"compound": "Acriflavine", "values": [
      {"measurement": "acriflavine release from SMP foams (non-cumulative release curve)", "setting": "[2]; HDI-based SMP foams, FIG. 1, increasing PVA concentration", "result": "increases (or at least differs) with increasing PVA concentration"},
      {"measurement": "release profile", "setting": "[2]; drug solution with 0% PVA", "result": "delayed burst release"},
      {"measurement": "acriflavine release from SMP foams (non-cumulative release curve)", "setting": "[2]; non-reticulated TMHDI 60 (TH60) SMP foams, FIG. 3, increasing PVA concentration", "result": "increased (or at least differs) with increasing PVA concentration"},
      {"measurement": "acriflavine release from SMP foams (non-cumulative release curve)", "setting": "[2]; reticulated HH80 SMP foams, FIG. 2, increasing PVA concentration", "result": "increased (or at least differs) with increasing PVA concentration"},
      {"measurement": "release profile", "setting": "[2]; solutions with higher PVA concentrations", "result": "immediate release"},
      {"measurement": "drug uptake onto or into the foam", "setting": "[3]; drug solution without PVA (0% PVA), compared to solutions with increasing PVA concentration", "result": "less drug uptake"},
      {"measurement": "drug uptake onto or into the foam", "setting": "[3]; increasing PVA concentrations, FIGS. 1, 2, 3", "result": "increased drug uptake"},
      {"measurement": "solubility", "setting": "[1]", "result": "soluble in both DMSO and water"}
    ]}
  ]
}
